From patent publication US20250212892A1, “USE OF THERMALLY HYDROLYZED KERATIN PEPTIDE SOLUTION IN ENHANCING THE YIELD AND QUALITY OF TEA LEAVES” (CH Biotech R&D Co., Ltd., priority 2023, published 2025)

Tested on: tea tree (Camellia Sinesis)
Assay: Spring application (soil infusion, then leaf spray twice): tea shoot production and proportion of terminal facing leaves
Type: in vivo
Conditions: urea 200× dilution
Excerpt: The inventors defined a unit area of 30×30 cm^2 for harvesting tea shoot and measuring weights. The inventors further defined a percentage value of cease-growing bud weight relative to the total bud weight, as indication of the increased tea leaf production without advancing the bud-aging side-effect.
One of the experiments involves first soil infusion application one week after initial harvesting, then leaf-spraying of KHP-1 500× solution twice, first time at the one-bud-with-one-leaf stage and second time at one-bud-with-two-leaf stage. In addition to a CK group, another urea application group of 200× dilution (200 kg of water to 1 kg of urea) is also tabulated. The result is shown in FIG. 1A where the tea shoot's production for the KHP-1 500× group is 32.54 g in a 900 cm^2 harvest area, higher than that of the CK group (20.86 g) and urea group (28.69 g).
This is reflected in FIG. 1B.

NC(N)=O [urea]
tea shoot's production (900 cm^2 harvest area, FIG. 1A): 28.69 g | proportion of terminal facing leaves (FIG. 1B): 47.4%
